Data taken from patent US9597307B2 (priority 2012, dated 2017).
Read-outs that look alike come from different tables or passages of the source.

Legend:
Wistar rats = settings: high fructose diet, two weeks of daily injections 10 mg/kg, vs vehicle-treated control
Description: For intraperitoneal pyruvate tolerance tests, a high fructose diet was used to induce insulin resistance on a group of Wistar rats. […] Intraperitoneal pyruvate tolerance tests are a procedure where pyruvate is converted to glucose in gluconeo-genesis. The test specifically reflects the insulin sensitivity of the liver.

T2D signature = settings: Wistar rats, high fructose diet, two weeks of daily injections 10 mg/kg; p<0.0001 using Fisher's exact test
Description: In a first attempt to use gene network analyses for drug repositioning, a panel of 50 genes that are perturbed in the liver in T2D (‘T2D signature’) were identified. The genes were selected using differential expression analysis, causality tests, and a Bayesian network algorithm to identify genes that regulate the expression of several other disease genes (‘key regulators’).
A high fructose diet was used to induce insulin resistance on a group of Wistar rats.

H-4-II-E cells = settings: without or with 10 or 100 nM insulin, FIG. 3
Description: H-4-II-E cells were seeded 110,000/well in 24-well plates in their usual medium (EMEM from ATCC, no 30-2003 with addition of 10% FBS and penicillin/streptomycin) at day 0 and incubated with 0.25 mM palmitate-BSA (ratio 10:3) for 16 h ON day 2-3. […] The cells were washed 3 times with glucose output medium (GOM) without glucogenic substrates (118 mM NaCl, 4.7 mM KCl, 1.2 mM MgSO4, 1.2 mM KH2P04, 1.2 mM CaC12, 20 mM NaHCO3, 25 mM HEPES pH 7.4 and 0.025% BSA). Then 500 ul of GOM (118 mM NaCl, 4.7 mM KCl, 1.2 mM MgSO4, 1.2 mM KH2PO4, 1.2 mM CaCl2, 20 mM NaCO3, 25 mM HEPES pH 7.4, 0.025% BSA, 20 mM lactate, 2 mM pyruvate and 10 mM glutamine) and GOM with the addition of 10 or 100 nM insulin was added, and the cells were allowed to incubate for 5 h. After that, most of the incubation medium (375 ul) was removed and used for glucose measurements. The cells were washed once with cold PBS and lyzed with 200 ul RIPA buffer for determination of protein concentration. […] Glucose concentration in the buffer samples was determined using the AmplexRed Glucose/Glucose Oxidase Assay Kit (LifeTechnologies no. A22189) following the manufacturer's instructions. Protein concentration in the cell lysates was measured using Pierce BCA Protein Assay Kit (ThermoScientific no. 23225).

[1] = cited from earlier work; for toxicity in studies / clinical testing: other indications (cancer and immune diseases), high doses

C[S+]([O-])CCCCN=C=S (stereo not drawn) [sulforaphane]
intraperitoneal pyruvate tolerance (insulin sensitivity of the liver) (Wistar rats; FIG. 2): significant positive effect
intraperitoneal pyruvate tolerance (insulin sensitivity of the liver) (Wistar rats; FIG. 2, listed as Sulforaphane): showed significant differences from a vehicle-treated control group
reversal of genes in the T2D signature in liver (T2D signature): a major fraction of the genes in the T2D signature was reversed
hepatic glucose output, insulin-sensitive liver cells (H-4-II-E cells; 10 uM sulforaphane for 28 h): decreases hepatic glucose output
hepatic glucose output, insulin-resistant (induced by palmitate) liver cells (H-4-II-E cells; 0.25 mM palmitate-BSA 16 h, then 10 uM sulforaphane for 28 h): decreases hepatic glucose output
result of the experiments repeated in animals on high-fat diet (animals on high-fat diet): positive results
serious adverse events in ongoing studies ([1]; ongoing studies for other indications): no serious adverse events have been reported
toxicity in studies / clinical testing [1]: low toxicity even at high doses
toxicity in studies / clinical testing ([1]; listed as Sulforaphane): very low toxicity even at high doses
